Source: patent US10400008B2, “Modulators of the SRC-kinase activity for preventing or treating metastatic cancer” (Cancer Research Technology Limited, priority 2013, dated 2019)
Where “and” joins values, the source holds several entries; their conditions need not be identical. Equal entries are not always repeated.

Legend:
[1] = tested on: plugs of uterine tissue (endometriosis lesions); assay: Dose ranging prevention study: lesion burden, growth and establishment of transplanted uterine tissue plugs; type: in vivo, C57BL6 mice; conditions: for Lesion establishment, single plug (P1-P4, M1, M2): 1 or 0 per plug, individual mouse; for Lesion establishment, single plug (P1-P4, M1, M2) / Lesion burden, Ave / Lesion growth, Ave / Lesion burden, Mean / Lesion establishment, Mean / Lesion growth, Mean / Lesion burden, single plug (P1-P6) / Lesion growth, single plug (P1-P4, M1, M2) / Lesion establishment, Ave: prevention; for Lesion burden, Ave / Lesion growth, Ave: average per mouse; for lesion burden / lesion growth: control 7.18; for Lesion burden, Mean / Lesion establishment, Mean / Lesion growth, Mean: group mean; for Lesion burden, single plug (P1-P6) / Lesion growth, single plug (P1-P4, M1, M2): individual mouse and plug; for Lesion establishment, Ave: per mouse
[2] = biological target: T1, AR/Src complex (Homo sapiens, UniProt P12931); assay: EGFR/AR/Src association by immunoprecipitation in EGF-stimulated HT1080 cells; type: cell-based; conditions: EGF 100 ng/ml 10 min, peptide 1 nM
T1 construct: endogenous in cells; host or cells: HT1080 human fibrosarcoma cells
T1 sequence (P12931 2-536 limits assumed, one chain of several): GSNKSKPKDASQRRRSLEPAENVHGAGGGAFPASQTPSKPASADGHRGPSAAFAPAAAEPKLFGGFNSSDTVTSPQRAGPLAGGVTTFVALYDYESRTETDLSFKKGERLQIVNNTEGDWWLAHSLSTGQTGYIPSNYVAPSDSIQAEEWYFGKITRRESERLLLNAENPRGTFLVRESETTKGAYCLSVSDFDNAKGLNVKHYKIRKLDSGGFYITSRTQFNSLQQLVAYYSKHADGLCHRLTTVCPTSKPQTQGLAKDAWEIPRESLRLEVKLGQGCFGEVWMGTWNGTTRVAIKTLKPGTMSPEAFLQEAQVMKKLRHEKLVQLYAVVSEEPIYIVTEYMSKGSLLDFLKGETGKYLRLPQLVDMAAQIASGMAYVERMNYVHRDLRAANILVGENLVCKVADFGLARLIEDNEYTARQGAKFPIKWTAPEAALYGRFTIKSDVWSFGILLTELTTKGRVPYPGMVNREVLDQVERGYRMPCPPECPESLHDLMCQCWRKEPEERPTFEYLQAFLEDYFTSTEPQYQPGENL
Protocol: FIG. 3: Inhibition by S1 peptide of AR/Src complex, Src activation and DNA synthesis triggered by EGF in HT1080 cells. Quiescent HT1080 cells were used. The cells were left un-stimulated or stimulated for 10 min with EGF (at 100 ng/ml; Roche) in the absence or presence of S1 or Ss peptide (both at 1 nM). Casodex (at 10 μM) was used for comparison with the S1 peptide. The same concentrations of peptides and Casodex were used throughout the experiments. Upper section in A, the Western blot of HT1080 cell lysates with anti-EGFR antibody is shown. […] Lower section in A, lysates were immune-precipitated with anti EGFR Ab and proteins in immune-complexes were detected using antibodies against the indicated proteins. In B, lysates were immune-precipitated with the anti-Src MAb and Src activity in immune-complexes was assayed using enolase as a substrate. In C, cells on coverslips were left untreated or treated for 18 h with the indicated compounds. After in vivo pulse with BrdU (100 μM; Sigma), BrdU incorporation was analyzed by IF and expressed as % of total nuclei. Mean and SEM are shown. n represents the number of experiments.
Src tyrosine kinase was immune-precipitated, detected and assayed using enolase as a substrate (15). Src, EGF-R and tubulin were detected from cell lysates using appropriate antibodies (7). AR was immune-precipitated and detected as reported (3). […]

[3] = tested on: HT1080 cells; assay: Migration in Trans-well filters and wound healing of HT1080 cells; type: cell-based, human; conditions: 6 h, peptide 1 nM
Protocol: (§1) FIG. 4: The S1 peptide inhibits EGF-stimulated migration and MMP-9 secretion in HT1080 cells. Quiescent HT1080 cells were used. In A, cells were left untreated or treated for 6 h with the indicated compounds. MMP-9 release was assayed as described in Methods. In B, cells were allowed to migrate for 6 h in Trans-well filters in the absence or presence of the indicated compounds. Migrated cells were stained and counted as reported in Methods. In A and B, data were expressed as relative increase. Mean and SEM is shown. n represents the number of experiments. In C, cells were wounded and then left unstimulated or stimulated for 6 h with the indicated compounds. Contrast-phase images are representative of 3 different experiments, each performed in duplicate.
(§2) BrdU incorporation, migration and wound healing analysis were done as described (3, 11). MMP-9 activity was assayed (12, 13), using the fluorescent AK411 kit (BIOMOL Res. Lab.).

[4] = tested on: MMP-9; assay: MMP-9 release from HT1080 cells (fluorescent AK411 kit); type: cell-based, human; conditions: 6 h, peptide 1 nM
Protocol: as §1, §2

[5] = tested on: HT1080 cells; assay: BrdU incorporation (DNA synthesis) in HT1080 cells; type: cell-based, human; conditions: 18 h, EGF 100 ng/ml, peptide 1 nM
Protocol: Androgen challenging of these cells neither induces AR nuclear translocation, nor enhances DNA synthesis while robustly increases cell motility. In A, quiescent HT1080 cells were transfected with 3416 or 3424 ARE-luc constructs with or without hAR expressing plasmid. Details of these procedures have been described in Methods. Cells were left un-stimulated or stimulated for 18 h with 10 nM R1881. The luciferase activity was assayed, normalized using beta-gal as an internal control, and expressed as fold induction. Means and SEM are shown; n represents the number of experiments. […] In B, quiescent HT1080 cells on coverslips were left untreated or treated for 60 min with 10 nM R1881. Cells were analysed by IF for AR (left images) or Hoechst (right images). Images are representative of three independent experiments. […] In C, BrdU incorporation in cells on coverslips was analysed and expressed as in FIG. 2. In D, the number of migrated cells was evaluated and expressed as relative increase. […]
FIG. 3: Inhibition by S1 peptide of AR/Src complex, Src activation and DNA synthesis triggered by EGF in HT1080 cells. […] Lower section in A, lysates were immune-precipitated with anti EGFR Ab and proteins in immune-complexes were detected using antibodies against the indicated proteins. […] After in vivo pulse with BrdU (100 μM; Sigma), BrdU incorporation was analyzed by IF and expressed as % of total nuclei. […]

[6] = 1 ng/mouse s.c. daily, listed as ValiRx1
[7] = 10 ng/mouse s.c. daily, listed as ValiRx1
[8] = 100 ng/mouse s.c. daily, listed as ValiRx1
[9] = first of three dose groups (1 ng, 10 ng, 100 ng daily s.c.)
[10] = second of three dose groups (1 ng, 10 ng, 100 ng daily s.c.)
[11] = third of three dose groups (1 ng, 10 ng, 100 ng daily s.c.)

## Ac-PPPHPHARIK-NH2 [VAL001]
[1]; [6]
  Lesion establishment, single plug (P1-P4, M1, M2): 1 (29×) and 0
  Lesion burden, Ave: 6.5 mm^2 and 8.5 mm^2 and 1.1 mm^2 and 1.9 mm^2 and 12.1 mm^2
  Lesion growth, Ave: 6.5 mm^2 and 8.5 mm^2 and 1.3 mm^2 and 1.9 mm^2 and 12.1 mm^2
  Lesion burden, single plug (P1-P6): 1.1 mm^2 (3×) and 3.1 mm^2 and 2.5 mm^2 and 4.2 mm^2 and 16.7 mm^2 and 15.2 mm^2 and 3.8 mm^2 (2×) and 0.2 mm^2 (3×) and 6.2 mm^2 and 0.5 mm^2 and 9.4 mm^2 and 0.0 mm^2 and 3.5 mm^2 (2×) and 17.0 mm^2 and 11.2 mm^2 and 8.0 mm^2 (2×) and 15.1 mm^2 and 5.7 mm^2 and 10.2 mm^2 and 10.6 mm^2 and 16.6 mm^2 and 1.8 mm^2 and 0.1 mm^2
  Lesion growth, single plug (P1-P4, M1, M2): 1.131 mm^2 (3×) and 3.142 mm^2 and 2.545 mm^2 and 4.155 mm^2 and 16.74 mm^2 and 15.21 mm^2 and 3.801 mm^2 (2×) and 0.196 mm^2 (3×) and 6.158 mm^2 and 0.503 mm^2 and 9.425 mm^2 and 3.456 mm^2 and 3.464 mm^2 and 16.96 mm^2 and 11.2 mm^2 and 8.042 mm^2 (2×) and 15.1 mm^2 and 5.694 mm^2 and 10.18 mm^2 and 10.56 mm^2 and 16.62 mm^2 and 1.767 mm^2 and 0.126 mm^2
  Lesion establishment, Ave: 100% (4×) and 83.33%
[1]; [7]
  Lesion establishment, single plug (P1-P4, M1, M2): 1 (29×) and 0
  Lesion burden, Ave: 2.9 mm^2 and 6.7 mm^2 and 11.3 mm^2 and 3.3 mm^2 and 3.5 mm^2
  Lesion growth, Ave: 2.9 mm^2 and 6.7 mm^2 and 11.3 mm^2 and 3.3 mm^2 and 4.2 mm^2
  Lesion burden, single plug (P1-P6): 1.0 mm^2 (3×) and 3.5 mm^2 (5×) and 10.9 mm^2 and 7.3 mm^2 and 10.0 mm^2 and 4.5 mm^2 (2×) and 12.6 mm^2 and 7.0 mm^2 and 9.6 mm^2 and 3.1 mm^2 (2×) and 1.1 mm^2 and 2.5 mm^2 and 0.2 mm^2 and 6.7 mm^2 and 7.1 mm^2 and 5.4 mm^2 and 21.1 mm^2 and 12.1 mm^2 and 3.0 mm^2 and 0.0 mm^2 and 4.0 mm^2 and 9.7 mm^2
  Lesion growth, single plug (P1-P4, M1, M2): 0.95 mm^2 (3×) and 3.464 mm^2 (5×) and 10.95 mm^2 and 7.288 mm^2 and 10.02 mm^2 and 4.524 mm^2 (2×) and 12.57 mm^2 and 7.037 mm^2 and 9.621 mm^2 and 3.142 mm^2 (2×) and 1.131 mm^2 and 2.545 mm^2 and 0.196 mm^2 and 6.739 mm^2 and 7.069 mm^2 and 5.372 mm^2 and 21.11 mm^2 and 12.06 mm^2 and 2.969 mm^2 and 3.958 mm^2 and 9.66 mm^2
  Lesion establishment, Ave: 100% (4×) and 83.33%
[1]; 100 ng/mouse s.c. daily
  Lesion establishment, single plug (P1-P4, M1, M2): 1
  Lesion burden, Mean: 4.52 mm^2
  Lesion establishment, Mean: 100.00%
  Lesion growth, Mean: 4.52 mm^2
  Lesion establishment, Ave: 100%
[1]; [8]
  Lesion burden, Ave: 11.8 mm^2 and 1.8 mm^2 and 3.2 mm^2 and 3.0 mm^2 and 2.9 mm^2
  Lesion growth, Ave: 11.8 mm^2 and 1.8 mm^2 and 3.2 mm^2 and 3.0 mm^2 and 2.9 mm^2
  Lesion burden, single plug (P1-P6): 7.0 mm^2 and 18.5 mm^2 and 11.0 mm^2 and 4.5 mm^2 and 2.8 mm^2 (3×) and 2.3 mm^2 (3×) and 2.0 mm^2 (2×) and 3.1 mm^2 and 3.5 mm^2 (3×) and 1.5 mm^2 and 4.9 mm^2 and 8.4 mm^2 and 12.6 mm^2 and 13.2 mm^2 and 0.2 mm^2 and 1.0 mm^2 and 0.3 mm^2 (2×) and 3.8 mm^2 (2×) and 7.5 mm^2 and 2.5 mm^2 and 1.8 mm^2
  Lesion growth, single plug (P1-P4, M1, M2): 7.037 mm^2 and 18.47 mm^2 and 11 mm^2 and 4.453 mm^2 and 2.827 mm^2 (2×) and 2.27 mm^2 (3×) and 2.011 mm^2 (2×) and 3.142 mm^2 and 3.464 mm^2 (3×) and 1.539 mm^2 and 4.909 mm^2 and 8.357 mm^2 and 12.57 mm^2 and 13.2 mm^2 and 0.196 mm^2 and 0.95 mm^2 and 0.283 mm^2 (2×) and 3.801 mm^2 (2×) and 7.548 mm^2 and 2.545 mm^2 and 2.835 mm^2 and 1.767 mm^2
[1]; daily 1 ng, 10 ng or 100 ng s.c., dosed group vs control
  lesion growth following treatment: significantly reduced
[1]; [9]
  lesion burden: 6.02 mm^2
  lesion growth: 6.23 mm^2
[1]; 1 ng/mouse s.c. daily
  Lesion burden, Mean: 6.02 mm^2
  Lesion establishment, Mean: 96.67%
  Lesion growth, Mean: 6.23 mm^2
[1]; 10 ng/mouse s.c. daily
  Lesion burden, Mean: 5.53 mm^2
  Lesion establishment, Mean: 96.67%
  Lesion growth, Mean: 5.72 mm^2
[1]; [10]
  lesion burden: 5.53 mm^2
  lesion growth: 5.72 mm^2
[1]; [11]
  lesion burden: 4.52 mm^2
  lesion growth: 4.52 mm^2
[2]
  EGF-induced AR/Src association and AR/Src association with EGF-R: abolishes
[3]
  EGF-increased motility: inhibited at a similar extent
[4]
  EGF-stimulated MMP-9 secretion: inhibits
[5]
  EGF-triggered DNA synthesis (BrdU incorporation): inhibits
